Source: EP2719696A1, “NOVEL KINASE INHIBITORS” (Asinex Limited, priority 2011, dated 2012)

What was measured:
A375 = assay: MTT proliferation / cytotoxicity assay; format: cell-based, human
Experimental: (§1) Cell culture. The human cancer cell lines A172, A375, A2780 and U251 were purchased from the American Type Culture Collection. All cells were routinely maintained in DMEM containing 10% fetal bovine serum (Omega Scientific), at 37°C in 5% C02.
(§2) Proliferation assay Inhibition of cell A172, A375, A2780 and U251 cell proliferation was assessed by a MTT assay (MTT = Thiazolyl Blue Tetrazolium Bromide) . Cells were inoculated into 96-well microtiter plates containing 0.5% fetal calf serum and incubated at 37°C, 5% CO2, 95% air, and 100% relative humidity for 24 h prior to addition of testing compounds. Following compounds addition, the plates were incubated for an additional 72 h before processing to measure the cell population. Each compound was tested at eight different concentrations in triplicate, as was a control sample. Growth inhibition of 50% (IC50) is calculated by analysis of the data in Prizm3.4 software.
(§3) Table 8 lists IC50 values for inhibition of growth of several cancer cell lines, including the glioblastoma cell lines A172 and U251, measured in a MTT cytotoxicity assay. Table 8. Data of cytotoxicity assay (MTT) for several cancer cell lines, IC50 [µM]

A2780 = assay: MTT proliferation / cytotoxicity assay; format: cell-based, human
Experimental: as §1, §2, §3

A172 = assay: MTT proliferation / cytotoxicity assay; format: cell-based, human; settings: glioblastoma cell line
Experimental: as §1, §2, §3

U251 = assay: MTT proliferation / cytotoxicity assay; format: cell-based, human; settings: glioblastoma cell line
Experimental: as §1, §2, §3

VEGFR-2 = VEGFR-2 (Homo sapiens, UniProt P35968); assay: Kinase inhibition assay (ELISA); format: biochemical; settings: 1.5 µM ATP
Experimental: (§4) To determine the interaction of our compounds with tyrosine kinases: PDGFR-α, cKIT, PDGFR-β, VEGFR-2 we used enzyme-linked immunosorbent assay (ELISA).
(§5) Determination plates preparation: The plates are processed by neutravidine for 2 h at 30°C. After washing thrice with TBS/0.1% Tween-20 and blocking with 1% BSA/TBS for 1 h at room temperature (RT) 96-well microtiter plates were washed thrice with TBS/0.1% Tween-20 again.
(§6) Reaction: After addition test compounds (in DMSO, DMSO final concentration - 5%) to reaction buffer (20 mM HEPES, pH 7.5, 15 mM MgCl2, 3 mM MnCl2, 2 mM DTT, 0.2 mM Na3VO4, 0.005% Triton X-100; PDGFR-α,: 0.05 µg/ml, 0.5 µg/ml Poly(G,T)-biotin; PDGFR-β: 0.05 µg/ml, 1 µg/ml Poly(G,T)-biotin; c-KIT: 0.03 µg/ml, 0.15 µg/ml Poly(G,T)-biotin; VEGFR-2: 0.07 µg/ml, 0.05 µg/ml Poly(G,T)-biotin) and preincubation of reaction for 10 min at RT and intensive agitation, ATP solution (PDGFR-α, - 1 µM, PDGFR-β - 0.5 µM, c-KIT - 60 µM, VEGFR-2: - 1.5 µM ATP in reaction buffer per well) was added to initiate reaction. Following incubation of mixture for 1 h at 30°C and intensive agitation the reaction was stopped by stop solution (20 mM HEPES, pH 7.5, 50 mM EDTA).
(§7) Kinase activity determination: The reaction mixture was transferred to determination plate. After mix incubation for 1 h at RT and intensive agitation the plates were washed thrice with TBS/0.1% Tween-20. Following mouse monoclonal 0.05 µg/ml Anti-p-Tyr (PY20) HRP antibodies (Santa Cruz Biotechnology) in PBS/BSA were added for 1 h at RT and intensive agitation. After washing, antibody binding was detected by tetramethylbenzidine (TMB) color development (Sigma). Measurement of A450 nm was carried out after addition of H2SO4

cKIT = cKIT (Homo sapiens, UniProt P10721); assay: Kinase inhibition assay (ELISA); format: biochemical; settings: 60 µM ATP
Experimental: as §4, §5, §6, §7

PDGFR-α = PDGFR-α (Homo sapiens, UniProt P16234); assay: Kinase inhibition assay (ELISA); format: biochemical; settings: 1 µM ATP
Experimental: as §4, §5, §6, §7

Sequence of PDGFR-α (P16234 24-1089, species assumed): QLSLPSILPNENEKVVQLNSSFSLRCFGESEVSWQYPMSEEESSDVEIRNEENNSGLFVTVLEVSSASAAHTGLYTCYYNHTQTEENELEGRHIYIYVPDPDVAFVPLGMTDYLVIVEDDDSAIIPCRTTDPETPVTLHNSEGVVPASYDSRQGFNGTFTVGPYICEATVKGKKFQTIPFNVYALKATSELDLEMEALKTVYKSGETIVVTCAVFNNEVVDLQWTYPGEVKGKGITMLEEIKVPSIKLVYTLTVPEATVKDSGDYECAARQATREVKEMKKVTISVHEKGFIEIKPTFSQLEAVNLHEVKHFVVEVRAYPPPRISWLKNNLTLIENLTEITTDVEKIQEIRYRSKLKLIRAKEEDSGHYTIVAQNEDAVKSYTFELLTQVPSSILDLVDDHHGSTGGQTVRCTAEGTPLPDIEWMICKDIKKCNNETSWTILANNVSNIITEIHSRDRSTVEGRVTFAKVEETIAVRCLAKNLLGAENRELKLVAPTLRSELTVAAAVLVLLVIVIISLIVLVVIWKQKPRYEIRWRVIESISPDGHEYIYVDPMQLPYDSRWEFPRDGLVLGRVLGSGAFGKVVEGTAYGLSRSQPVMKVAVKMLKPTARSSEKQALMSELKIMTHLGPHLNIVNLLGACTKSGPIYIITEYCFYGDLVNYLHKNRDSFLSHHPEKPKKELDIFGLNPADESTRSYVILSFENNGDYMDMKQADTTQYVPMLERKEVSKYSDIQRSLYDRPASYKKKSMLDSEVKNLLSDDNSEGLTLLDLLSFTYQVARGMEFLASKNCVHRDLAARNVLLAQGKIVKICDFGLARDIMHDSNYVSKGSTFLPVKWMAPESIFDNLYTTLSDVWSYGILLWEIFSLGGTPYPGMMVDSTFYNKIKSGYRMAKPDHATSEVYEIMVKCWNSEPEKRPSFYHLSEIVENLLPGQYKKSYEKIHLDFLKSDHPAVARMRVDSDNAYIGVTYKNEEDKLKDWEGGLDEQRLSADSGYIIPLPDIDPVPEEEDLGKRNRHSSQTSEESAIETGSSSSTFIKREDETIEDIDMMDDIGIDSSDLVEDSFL
Sequence of cKIT (P10721 26-976): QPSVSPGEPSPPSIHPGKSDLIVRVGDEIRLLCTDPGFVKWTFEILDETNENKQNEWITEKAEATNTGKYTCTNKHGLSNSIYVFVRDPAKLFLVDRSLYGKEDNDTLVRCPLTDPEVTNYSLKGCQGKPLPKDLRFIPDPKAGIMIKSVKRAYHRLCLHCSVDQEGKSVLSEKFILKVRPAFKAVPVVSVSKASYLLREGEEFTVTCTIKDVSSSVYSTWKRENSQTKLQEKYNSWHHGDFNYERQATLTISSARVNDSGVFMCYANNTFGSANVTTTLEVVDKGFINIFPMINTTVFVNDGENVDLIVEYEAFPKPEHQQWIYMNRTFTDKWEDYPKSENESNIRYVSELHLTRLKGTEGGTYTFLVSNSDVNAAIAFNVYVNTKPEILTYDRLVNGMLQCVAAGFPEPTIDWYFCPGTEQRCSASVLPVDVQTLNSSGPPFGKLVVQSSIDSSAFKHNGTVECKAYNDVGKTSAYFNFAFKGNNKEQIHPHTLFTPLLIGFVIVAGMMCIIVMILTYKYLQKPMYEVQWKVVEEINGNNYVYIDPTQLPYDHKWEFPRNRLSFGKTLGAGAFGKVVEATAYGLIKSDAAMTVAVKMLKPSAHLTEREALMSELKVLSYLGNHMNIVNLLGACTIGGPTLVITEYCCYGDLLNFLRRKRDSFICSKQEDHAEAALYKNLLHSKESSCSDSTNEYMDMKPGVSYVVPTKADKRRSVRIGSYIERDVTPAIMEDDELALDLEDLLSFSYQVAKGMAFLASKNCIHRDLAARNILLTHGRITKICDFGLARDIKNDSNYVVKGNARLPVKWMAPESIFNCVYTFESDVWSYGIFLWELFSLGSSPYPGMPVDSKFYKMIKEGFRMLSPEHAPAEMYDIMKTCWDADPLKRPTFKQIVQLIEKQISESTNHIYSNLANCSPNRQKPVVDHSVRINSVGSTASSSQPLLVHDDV
Sequence of VEGFR-2 (P35968 20-1356, species assumed): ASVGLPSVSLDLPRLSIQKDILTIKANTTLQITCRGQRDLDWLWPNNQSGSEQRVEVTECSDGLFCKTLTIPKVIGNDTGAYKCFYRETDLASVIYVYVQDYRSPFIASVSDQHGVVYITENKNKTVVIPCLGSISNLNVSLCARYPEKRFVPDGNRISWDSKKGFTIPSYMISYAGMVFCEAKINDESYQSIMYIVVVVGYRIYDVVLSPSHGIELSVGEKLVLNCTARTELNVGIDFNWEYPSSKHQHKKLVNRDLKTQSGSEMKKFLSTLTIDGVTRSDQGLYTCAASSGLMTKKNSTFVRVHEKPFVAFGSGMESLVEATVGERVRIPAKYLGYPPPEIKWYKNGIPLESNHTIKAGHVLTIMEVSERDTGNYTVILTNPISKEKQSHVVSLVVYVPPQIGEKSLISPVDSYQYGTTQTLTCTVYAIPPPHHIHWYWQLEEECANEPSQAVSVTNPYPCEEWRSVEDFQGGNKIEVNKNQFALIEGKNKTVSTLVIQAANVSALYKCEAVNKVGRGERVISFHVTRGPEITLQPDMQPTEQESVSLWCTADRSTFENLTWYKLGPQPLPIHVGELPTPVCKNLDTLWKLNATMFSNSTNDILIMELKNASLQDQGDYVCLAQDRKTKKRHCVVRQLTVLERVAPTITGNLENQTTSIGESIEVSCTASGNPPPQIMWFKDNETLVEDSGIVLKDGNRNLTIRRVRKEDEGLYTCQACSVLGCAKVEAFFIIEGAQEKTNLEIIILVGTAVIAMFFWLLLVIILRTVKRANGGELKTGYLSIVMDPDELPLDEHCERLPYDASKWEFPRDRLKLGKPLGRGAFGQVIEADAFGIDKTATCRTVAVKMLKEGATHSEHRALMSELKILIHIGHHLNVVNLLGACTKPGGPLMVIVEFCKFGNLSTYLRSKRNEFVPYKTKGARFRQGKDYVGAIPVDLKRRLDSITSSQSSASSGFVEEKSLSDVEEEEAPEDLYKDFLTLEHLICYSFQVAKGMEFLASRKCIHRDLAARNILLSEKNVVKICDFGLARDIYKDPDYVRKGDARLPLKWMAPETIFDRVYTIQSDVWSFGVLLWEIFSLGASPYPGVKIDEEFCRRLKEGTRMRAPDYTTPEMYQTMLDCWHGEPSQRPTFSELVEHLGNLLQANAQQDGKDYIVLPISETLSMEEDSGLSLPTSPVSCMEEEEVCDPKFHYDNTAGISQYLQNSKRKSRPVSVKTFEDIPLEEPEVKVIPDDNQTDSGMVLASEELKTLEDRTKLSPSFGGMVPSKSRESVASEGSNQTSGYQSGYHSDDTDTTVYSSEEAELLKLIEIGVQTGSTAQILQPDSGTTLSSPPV

Compound: OCCN1CCC(c2cc(Nc3ncc(-c4ccccc4)s3)ccn2)CC1 [Example 033, 2-[4-(5-Phenyl-thiazol-2-ylamino)-3',4',5',6'-tetrahydro-2'H-[2,4']bipyridinyl-1'-yl]-ethanol]
- IC50 (A375; Homo sapiens, A-375, 72 h): > 10 µM
- IC50 (A2780; Homo sapiens, A2780, 72 h): > 10 µM
- IC50 (A172; Homo sapiens, A 172, 72 h): > 10 µM
- IC50 (U251; Homo sapiens, U-251, 72 h): > 10 µM
- IC50 (VEGFR-2): > 100 nM
- IC50 (cKIT): > 100 nM
- IC50 (PDGFR-α): > 10 nM

Compound: CN1CCCC(Cc2cccc(Nc3ncc(-c4ccc(F)cc4)s3)n2)CC1 (stereo not drawn) [Example 008, [5-(4-Fluoro-phenyl)-thiazol-2-yl]-[6-(1-methyl-azepan-4-ylmethyl)-pyridin-2-yl]-amine]
- IC50 (A375; Homo sapiens, A-375, 72 h): > 1 µM
- IC50 (A2780; Homo sapiens, A2780, 72 h): > 1 µM
- IC50 (A172; Homo sapiens, A 172, 72 h): > 10 µM
- IC50 (U251; Homo sapiens, U-251, 72 h): > 1 µM
- IC50 (VEGFR-2): > 1000 nM
- IC50 (cKIT): > 10 nM
- IC50 (PDGFR-α): > 10 nM

Compound: OCCN1CCC(c2ccnc(Nc3ncc(-c4ccccc4F)s3)c2)CC1 [Example 036, 2-{2'-[5-(2-Fluoro-phenyl)-thiazol-2-ylamino]-3,4,5,6-tetrahydro-2H-[4,4']bipyridinyl-1-yl}-ethanol]
- IC50 (A375; Homo sapiens, A-375, 72 h): > 1 µM
- IC50 (A2780; Homo sapiens, A2780, 72 h): > 1 µM
- IC50 (A172; Homo sapiens, A 172, 72 h): > 10 µM
- IC50 (U251; Homo sapiens, U-251, 72 h): > 1 µM
- IC50 (VEGFR-2): > 10 nM
- IC50 (cKIT): < 10 nM
- IC50 (PDGFR-α): < 10 nM

Compound: CC(=O)N1CCCC(Cc2cccc(Nc3ncc(-c4ccc(F)cc4)s3)n2)CC1 (stereo not drawn) [Example 007, 1-(4-{6-[5-(4-Fluoro-phenyl)-thiazol-2-ylamino]-pyridin-2-ylmethyl}-azepan-1-yl)-ethanone]
- IC50 (A375; Homo sapiens, A-375, 72 h): > 1 µM
- IC50 (A2780; Homo sapiens, A2780, 72 h): > 1 µM
- IC50 (A172; Homo sapiens, A 172, 72 h): > 1 µM
- IC50 (U251; Homo sapiens, U-251, 72 h): > 1 µM
- IC50 (VEGFR-2): > 100 nM
- IC50 (cKIT): > 10 nM
- IC50 (PDGFR-α): > 10 nM

Compound: c1ccc(-c2cnc(Nc3cc(C4CCCNC4)ccn3)s2)cc1 (stereo not drawn) [Example 028, (1,2,3,4,5,6-Hexahydro-[3,4']bipyridinyl-2'-yl)-(5-phenyl-thiazol-2-yl)-amine]
- IC50 (A375; Homo sapiens, A-375, 72 h): > 10 µM
- IC50 (A2780; Homo sapiens, A2780, 72 h): > 1 µM
- IC50 (A172; Homo sapiens, A 172, 72 h): > 1 µM
- IC50 (U251; Homo sapiens, U-251, 72 h): > 10 µM
- IC50 (VEGFR-2): 32 nM
- IC50 (cKIT): > 100 nM
- IC50 (PDGFR-α): < 10 nM

Compound: Fc1ccc(-c2cnc(Nc3cc(CC4CCNCC4)ccn3)s2)cc1 [Example 001, [5-(4-Fluoro-phenyl)-thiazol-2-yl]-(4-piperidin-4-ylmethyl-pyridin-2-yl)-amine]
- IC50 (A375; Homo sapiens, A-375, 72 h): > 1 µM
- IC50 (A2780; Homo sapiens, A2780, 72 h): > 1 µM
- IC50 (A172; Homo sapiens, A 172, 72 h): > 10 µM
- IC50 (U251; Homo sapiens, U-251, 72 h): > 1 µM
- IC50 (VEGFR-2): > 10 nM
- IC50 (cKIT): < 10 nM
- IC50 (PDGFR-α): < 10 nM

Compound: CS(=O)(=O)N1CCC(Cc2ccnc(Nc3ncc(-c4ccc(F)cc4)s3)c2)CC1 [Example 005, [5-(4-Fluoro-phenyl)-thiazol-2-yl]-[4-(1-methanesulfonyl-piperidin-4-ylmethyl)-pyridin-2-yl]-amine]
- IC50 (A375; Homo sapiens, A-375, 72 h): > 1 µM
- IC50 (A2780; Homo sapiens, A2780, 72 h): > 1 µM
- IC50 (A172; Homo sapiens, A 172, 72 h): > 1 µM
- IC50 (U251; Homo sapiens, U-251, 72 h): > 10 µM
- IC50 (VEGFR-2): > 10 nM
- IC50 (cKIT): > 10 nM
- IC50 (PDGFR-α): < 10 nM

Compound: [5-(4-Fluoro-phenyl)-thiazol-2-yl]-[6-(octahydro-isoindol-4-ylmethyl)-pyridin-2-yl]-amine [Example 021]
- IC50 (A375; 72 h): > 1 µM
- IC50 (A2780; 72 h): > 1 µM
- IC50 (A172; 72 h): > 1 µM
- IC50 (U251; 72 h): > 1 µM
- IC50 (VEGFR-2): > 100 nM
- IC50 (cKIT): > 10 nM
- IC50 (PDGFR-α): > 10 nM

Compound: Fc1ccc(-c2cnc(Nc3cccc(CC4CCCNCC4)n3)s2)cc1 (stereo not drawn) [Example 006, (6-Azepan-4-ylmethyl-pyridin-2-yl)-[5-(4-fluoro-phenyl)-thiazol-2-yl]-amine]
- IC50 (A375; Homo sapiens, A-375, 72 h): ≤ 1 µM
- IC50 (A2780; Homo sapiens, A2780, 72 h): ≤ 1 µM
- IC50 (A172; Homo sapiens, A 172, 72 h): > 1 µM
- IC50 (U251; Homo sapiens, U-251, 72 h): > 1 µM
- IC50 (VEGFR-2): > 100 nM
- IC50 (cKIT): > 10 nM
- IC50 (PDGFR-α): > 10 nM

Compound: c1ccc(-c2cnc(Nc3cc(CCC4CCCN4)ccn3)s2)cc1 (stereo not drawn) [Example 015, (5-Phenyl-thiazol-2-yl)-[4-(2-pyrrolidin-2-yl-ethyl)-pyridin-2-yl]-amine]
- IC50 (A375; Homo sapiens, A-375, 72 h): > 1 µM
- IC50 (A2780; Homo sapiens, A2780, 72 h): > 1 µM
- IC50 (A172; Homo sapiens, A 172, 72 h): > 1 µM
- IC50 (U251; Homo sapiens, U-251, 72 h): > 10 µM
- IC50 (VEGFR-2): > 10 nM
- IC50 (cKIT): > 100 nM
- IC50 (PDGFR-α): < 10 nM

Compound: OCCN1CCC(c2ccnc(Nc3ncc(-c4cc(F)cc(F)c4)s3)c2)CC1 [Example 039, 2-{2'-[5-(3,5-Difluoro-phenyl)-thiazol-2-ylamino]-3,4,5,6-tetrahydro-2H-[4,4']bipyridinyl-1-yl}-ethanol]
- IC50 (A375; Homo sapiens, A-375, 72 h): > 1 µM
- IC50 (A2780; Homo sapiens, A2780, 72 h): > 10 µM
- IC50 (A172; Homo sapiens, A 172, 72 h): > 1 µM
- IC50 (U251; Homo sapiens, U-251, 72 h): > 10 µM
- IC50 (VEGFR-2): > 10 nM
- IC50 (cKIT): > 10 nM
- IC50 (PDGFR-α): < 10 nM

Compound: CC(=O)N1CCC(Cc2ccnc(Nc3ncc(-c4ccc(F)cc4)s3)c2)CC1 [Example 002, 1-(4-{2-[5-(4-Fluoro-phenyl)-thiazol-2-ylamino]-pyridin-4-ylmethyl}-piperidin-1-yl)-ethanone]
- IC50 (A375; Homo sapiens, A-375, 72 h): > 1 µM
- IC50 (A2780; Homo sapiens, A2780, 72 h): > 1 µM
- IC50 (A172; Homo sapiens, A 172, 72 h): > 1 µM
- IC50 (U251; Homo sapiens, U-251, 72 h): > 10 µM
- IC50 (VEGFR-2): > 10 nM
- IC50 (cKIT): < 10 nM
- IC50 (PDGFR-α): < 10 nM

Compound: CC(=O)N1CCOCC(Cc2ccnc(Nc3ncc(-c4ccc(F)cc4)s3)c2)C1 (stereo not drawn) [Example 012, 1-(6-{2-[5-(4-Fluoro-phenyl)-thiazol-2-ylamino]-pyridin-4-ylmethyl}-[1,4]oxazepan-4-yl)-ethanone]
- IC50 (A375; Homo sapiens, A-375, 72 h): > 1 µM
- IC50 (A2780; Homo sapiens, A2780, 72 h): > 1 µM
- IC50 (A172; Homo sapiens, A 172, 72 h): > 1 µM
- IC50 (U251; Homo sapiens, U-251, 72 h): > 10 µM
- IC50 (VEGFR-2): > 10 nM
- IC50 (cKIT): > 10 nM
- IC50 (PDGFR-α): < 10 nM

Compound: OCCN1CCC(c2ccnc(Nc3ncc(-c4cccc(F)c4)s3)c2)CC1 [Example 037, 2-{2'-[5-(3-Fluoro-phenyl)-thiazol-2-ylamino]-3,4,5,6-tetrahydro-2H-[4,4']bipyridinyl-1-yl}-ethanol]
- IC50 (A375; Homo sapiens, A-375, 72 h): > 10 µM
- IC50 (A2780; Homo sapiens, A2780, 72 h): > 1 µM
- IC50 (A172; Homo sapiens, A 172, 72 h): > 10 µM
- IC50 (U251; Homo sapiens, U-251, 72 h): > 1 µM
- IC50 (VEGFR-2): > 10 nM
- IC50 (cKIT): < 10 nM
- IC50 (PDGFR-α): < 10 nM

Compound: c1ccc(-c2cnc(Nc3cccc(CC4CC5CCC(C4)N5)n3)s2)cc1 (stereo not drawn) [Example 022, [6-(8-Aza-bicy-clo[3.2.1]oct-3-ylmethyl)-pyridin-2-yl]-(5-phenyl-thiazol-2-yl)-amine]
- IC50 (A375; Homo sapiens, A-375, 72 h): ≤ 1 µM
- IC50 (A2780; Homo sapiens, A2780, 72 h): ≤ 1 µM
- IC50 (A172; Homo sapiens, A 172, 72 h): > 1 µM
- IC50 (U251; Homo sapiens, U-251, 72 h): > 1 µM
- IC50 (VEGFR-2): > 100 nM
- IC50 (cKIT): > 10 nM
- IC50 (PDGFR-α): > 10 nM
